The record followed here is patent US11192849B2, “Compounds, compositions, and methods for modulating ferroptosis and treating excitotoxic disorders” (THE TRUSTEES OF COLUMBIA UNIVERSITY IN THE CITY OF NEW YORK, priority 2013, dated 2021).

The subject of test [1] is HT-1080 cells. The test is described as follows: Effect of Fer-1 on the lethality of various compounds in HT-1080 cells. The class given is cell-based, human. The note with it: resynthesized Fer-1 (0.5 μM).
Experimental: The comparative analysis of the lethal effects of various molecules was conducted as above for the inhibitors experiment with the following modifications. All lethal molecules were tested in a ten point, two-fold dilution series. Inhibitors were made in media at 1× final concentration. The growth media was removed from the plates, and 36 μL media+inhibitor (or DMSO) was added back to the plate+4 μL from the 10× lethal stock plate. Cell viability and modulatory effects (Me) were computed as above, to obtain the maximum deviation from BExp produced by each modulator across the different lethal small molecule concentrations.
In test [2] the test system is HT-1080 cells. The test is described as follows: Mitochondrial ROS (MitoSOX) in HT-1080 cells. The note with it: rotenone 250 nM, 3 hr, Fer-1 1 μM. The class given is cell-based, human.
Experimental: 200,000 HT-1080 cells were seeded into 6-well dishes (Corning). The next day, cells were treated with +/−rotenone +/−ferrostatin-1 for 3 hours (for MitoSOX experiments) or +/−STS +/−ferrostatin-1 for 4 hours (for 10-N-nonylacridine orange [NAO] experiments), harvested by trypsinization and analyzed as follows. For the analysis of mitochondrial ROS, cells were incubated with 5 μM MitoSOX (Molecular Probes/Invitrogen) in HBSS for 10 minutes in the dark at 37° C. […] MitoSOX data were collected in the FL2 channel and NAO data was collected in the FL1 channel. Data are from three independent biological replicates of each experiment. Data were analyzed by one-way ANOVA with Bonferroni's post-hoc test.
A minimum of 10,000 cells were analyzed per condition.
Test [3] relates to C57BL/6 mice, kidney ischemia-reperfusion injury. Nature of the test: Kidney model of ischemia-reperfusion injury (IRI). Type of test: in vivo. The procedure:
As an initial in vivo study, the effects of Fer-1 and SRS16-86 on serum creatinine, a marker of kidney damage, were evaluated in an ischemia reperfusion injury (IRI) model of kidney failure (FIG. 21).
Organs were dissected as indicated in each experiment and infused with 4% (vol/vol) neutral-buffered formaldehyde, fixated for 48 h, dehydrated in a graded ethanol series and xylene, and finally embedded in paraffin. Stained sections were analyzed using an Axio Imager microscope (Zeiss). Kidney damage was quantified by two experienced pathologists in a double-blind manner on a scale ranging from 0 (unaffected tissue) to 10 (severe organ damage). The following parameters were chosen as indicative of morphological damage to the kidney after ischemia-reperfusion injury (IRI): brush border loss, red blood cell extravasation, tubule dilatation, tubule degeneration, tubule necrosis, and tubular cast formation. These parameters were evaluated on a scale of 0-10, which ranged from not present (0), mild (1-4), moderate (5 or 6), severe (7 or 8), to very severe (9 or 10). Each parameter was determined on at least four different animals.
Induction of kidney IRI was performed via a midline abdominal incision and a bilateral renal pedicle clamping for either 40 min (severe IRI, or “lethal-to-WT” IRI) or 50 min (ultra-severe IRI) using microaneurysm clamps (Aesculab). Throughout the surgical procedure, the body temperature was maintained between 36° C. and 37° C. by continuous monitoring using a temperature-controlled self-regulated heating system (Fine Science Tools). After removal of the clamps, reperfusion of the kidneys was confirmed visually. The abdomen was closed in two layers using standard 6-0 sutures. Sham-operated mice underwent the identical surgical procedures, except that microaneurysm clamps were not applied. To maintain fluid balance, all of the mice were supplemented with 1 mL of prewarmed PBS administered intraperitoneally directly after surgery. All mice were killed 48 h after reperfusion for each experiment. […] All ischemia-reperfusion experiments were performed in a double-blinded manner.

The next test has as its system mice, LPS-induced shock. Nature of the test: LPS-induced lethal shock. Type of test: in vivo, mouse. The note with it: Fer-1 5 mg/kg i.p. 30 min before LPS. The procedure: Mice were injected intraperitoneally (i.p.) with 15 mg/kg Escherichia coli O111:B4 LPS (Sigma-Aldrich). Mice were pretreated by an i.p. injection of 5 mg/kg ethyl 3-amino-4-(cyclohexylamino)benzoate (Fer-1; Matrix Scientific), 10 mg/kg [5-((7-Cl-1H-indol-3-yl)methyl)-3-methylimidazolidine2,4-dione] (Nec-1s; synthesized in house), a combination of Fer-1 and Nec-1s, or vehicle (1% DMSO in PBS) 30 min before the LPS challenge. Rectal body temperature and survival rates were monitored daily up to 96 h. Experiments were approved by the animal ethics committee of Ghent University.

Structures are written as SMILES.

On to `CCOC(=O)c1ccc(NC2CCCCC2)c(N)c1` [SRS8-28 (Fer-1), ethyl 3-amino-4-(cyclohexylamino)benzoate], for which, in the test on HT-1080 cells [1], the “specificity of death inhibition among lethal compounds” value is “specifically inhibited RSL-induced death, but not cell death induced by other oxidative lethal compounds and apoptosis-inducing agents”. Moreover, in the test with HT-1080 cells [2], the “accumulation of mitochondrial superoxide in response to rotenone” value is reported as “did not prevent”. For the same compound, the “serum creatinine in IRI model of kidney failure” value in test [3] (2 mg/kg IP 30 minutes prior to induction of IRI) is recorded as “effective”. The “functional acute renal failure and structural organ damage after severe IRI” value in test [3] (40 min ischemia, 48 h after reperfusion, 2 mg/kg i.p.) is listed as “protected from functional acute renal failure”. In addition, in the test with mice, LPS-induced shock, the “temperature drop and survival after LPS” value is listed as “no difference compared with vehicle-treated mice was evident”.
